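Assay format: 96-well plates, 48-hour exposure. The concentration for full growth arrest is given as TGI.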
Legend:
Assay in all cases: NCI tumour cell line growth inhibition, 48 h
[1] = system: CCRF-CEM leukemia
[2] = system: TK-10 renal
[3] = system: SR leukemia
[4] = system: HT29 colon
[5] = system: PC-3 prostate
[6] = system: NCI-H460 lung
[7] = system: KM12 colon
[8] = system: HL-60(TB) leukemia
[9] = system: OVCAR-8 ovarian
[10] = system: UACC-257 melanoma
[11] = system: MCF7 breast
[12] = system: LOX IMVI melanoma

SMILES | TGI [1] [µM] | TGI [2] [µM] | TGI [3] [µM] | TGI [4] [µM] | TGI [5] [µM] | TGI [6] [µM] | TGI [7] [µM] | TGI [8] [µM] | TGI [9] [µM] | TGI [10] [µM] | TGI [11] [µM] | TGI [12] [µM]
C(#CP(c1ccccc1)c1ccccc1)P(C#CP(c1ccccc1)c1ccccc1)c1ccccc1 | > 100 | > 100 | > 100 | > 100 | > 100 | > 100 | > 100 | > 100 | > 100 | > 100 | > 100 | –
COc1cc(-c2c3c(cc4c2OCO4)[C@@H](Nc2ccc(-c4ccc(-c5ccc(N[C@@H]6c7cc8c(cc7C(c7cc(OC)c(O)c(OC)c7)[C@H]7C(=O)OC[C@H]67)OCO8)cc5)cc4)cc2)[C@H]2COC(=O)[C@@H]2C3)cc(OC)c1O (some centres not stated) | > 100 | 8.59 | – | 5.62 | 8.37 | 10.7 | 4.63 | – | 3.77 | 80.4 | 12.1 | > 100
COc1cc2c(cc1OC)C(=O)/C(=C/c1cc(C)cc(C)c1)C2 | – | > 100 | – | 0.835 | 24.2 | 5.1 | 13.5 | – | – | > 100 | > 31.9 | > 96.8
CC(C)C1=CC(=O)[C@@](C)(C2[C@H](O)C[C@@]3(C)[C@@H]4CC=C5[C@@H](CC[C@@H](OC6OCC(O)C(O)C6OC6OC(C)C(O)C(O)C6O)C5(C)C)[C@]4(C)C(=O)C[C@]23C)O1 (some centres not stated) | > 100 | – | – | > 100 | > 100 | > 100 | > 100 | – | > 100 | – | > 100 | –
CCCCOC(=O)C1CC[C@H]2[C@@H]3CCc4cc(OC(=O)c5cccc6c(=O)c7ccccc7[nH]c56)ccc4[C@H]3CC[C@]12C (some centres not stated) | – | 14.7 | – | 18.6 | 15.6 | – | 17 | 13.6 | 21.3 | 15.3 | 25.8 | 17.1
COc1ccccc1C1(c2c(OC)c(=O)c2=O)SCCCS1 | > 100 | > 100 | – | > 100 | > 100 | > 100 | > 100 | > 100 | > 100 | > 100 | > 100 | > 100
CNc1ncnc2c1nc(NC1CCCC1)n2C1OC(CO)C(O)C1O (configuration not stated) | – | > 100 | – | > 100 | > 100 | > 100 | > 100 | – | > 100 | – | > 100 | –
COC1C(N(C)C)=C(c2ccccc2)C(=O)N2CCc3ccccc3C12 (configuration not stated) | > 100 | > 100 | – | > 100 | > 100 | – | > 100 | > 100 | > 100 | > 100 | > 100 | > 100
Cc1ccc2c(c1)nc1n2C(N)=Nc2ccccc2S1 | – | > 100 | > 100 | > 100 | > 100 | > 100 | > 100 | 6.86 | > 100 | > 100 | > 100 | > 100
C(=Nc1ccc(-c2nc3ccccc3s2)cc1)c1ccc[nH]1 | 57.4 | 64.2 | 49.5 | 38.8 | 31.5 | 38.1 | 71.3 | 72.6 | > 100 | 31.2 | – | 33.3
CCN1CCC(CNC(=O)c2ccc(N)cc2)N1CC (configuration not stated) | > 100 | > 100 | > 100 | > 100 | > 100 | > 100 | > 100 | > 100 | > 100 | > 100 | > 100 | –
O=c1c(Cc2ccc(Cl)cc2)nnc2sc(-c3ccc(-c4ccc(Cl)cc4Cl)o3)nn12 | > 100 | > 100 | – | > 100 | > 100 | > 100 | > 100 | > 100 | > 100 | > 100 | > 100 | > 100
CCn1c(CCl)nc2c1C(=O)c1ccccc1C2=O | – | 8.73 | – | 3.47 | 4.53 | 3.9 | 3.23 | 6.85 | 2.95 | 3.36 | 3.79 | –
N/C1=C/C(=O)NC(=O)c2c(c3ccccc3oc2=O)C1 | > 100 | > 100 | > 100 | > 100 | > 100 | > 100 | > 100 | > 100 | > 100 | > 100 | – | > 100
CN(CCNC(=O)c1c[nH]c2c1Cc1ccccc1-2)CCNC(=O)c1c[nH]c2c1Cc1ccccc1-2 | – | > 100 | > 100 | > 100 | 41.9 | > 100 | > 100 | 77.2 | > 100 | > 100 | 86 | > 100
Brc1cccc(C2ON=C(c3ccccc3)N2C23CC4CC(CC(C4)C2)C3)c1 (configuration not stated) | > 10 | > 10 | – | > 10 | > 10 | > 10 | > 10 | – | > 10 | > 10 | > 10 | > 10
CC(C)=CC(=O)c1[nH]c2ccccc2c1CC(=O)NCCc1cncn1C | > 100 | > 100 | 68 | > 100 | > 100 | > 100 | > 100 | – | > 100 | > 100 | > 100 | > 100
CCc1c(-c2ccc(OC)cc2)oc(OC)c(C)c1=O | > 100 | > 100 | – | > 100 | > 100 | > 100 | > 100 | – | > 100 | > 100 | > 100 | > 100
C[C@@H]1CC(=O)C[C@@H]2CC[C@H]3[C@@H]4CC[C@H](OC(=O)c5cccc6cc7ccccc7nc56)[C@H]4CC[C@@H]3[C@H]21 | – | 65.9 | – | 29.3 | 27.1 | 30.8 | 31.5 | – | 38 | 30.8 | – | 39.8
Cn1c(=O)c2c(nc3sc4ccccc4c(=O)n32)n(C)c1=O | – | > 100 | – | > 100 | > 100 | > 100 | > 100 | > 100 | > 100 | > 100 | > 100 | > 100

— PubChem BioAssay (NCI)
